Measurements published in US20220281930A1, “COMPOSITIONS AND METHODS FOR THE TREATMENT OF PATHOLOGICAL PAIN AND ITCH” (DUKE UNIVERSITY, priority 2019, published 2022).

Experiments:
[1] = test system: inflammatory pain, evoked by peripheral tissue injection of CFA; assay: CFA inflammatory pain model; type: in vivo, mouse
Protocol: For pain-related behavior, mechanical allodynia was assessed with von Frey filaments (Ugo Basile, Italy). The mice were placed on a 5×5-mm wire-mesh grid floor in individual compartments to avoid visual stimulation and allowed to adapt for 0.5 h prior to the von Frey test. The von Frey filament was then applied to the middle of the plantar surface of the hind paw with 5 g force. The withdrawal responses following the hind paw stimulation were measured at least three times, and the mechanical allodynia, which was defined as an increase in the number of withdrawal responses to the stimulation, was compared. In addition, paws were stimulated with heat from underneath applied by an infrared beam (Hargreaves' test apparatus, IR level 40; Ugo Basile), and withdrawal latencies were recorded. […] Thus, in vivo, KP functions as an analgesic when administered systemically in injury-related pain models.

KCC2 mRNA = KCC2 mRNA RT-qPCR in microdissected spinal cord dorsal horn; type: in vivo, mouse; details: KP 10 mg/kg; after PSNL vs vehicle
Protocol: oligodT-initiated reverse transcription of 1 μg total RNA, DNA-se treated, was subjected to RT-qPCR using primers specific for KCC2 for rat and KCC2 for human sequences, normalized for neuronal βIII-tubulin, as previously described (Yeo et al., 2009, J Neurosci 29:14652-14662). For cultured neurons, total RNA was extracted from pelleted cells, and for spinal cord tissue it was extracted from microdissected lumbar spinal cord dorsal horn.
With the aforementioned findings and in view of the SCDH as the likely site of analgesic action of KP (Coull et al., 2003, Nature 424:938-942; Gagnon et al., 2013, Nat Med 19:1524-1528), SCDH KCC2 expression and function in nerve injury and response to KP was assessed. […] To measure KCC2 mRNA, SCDH Rexed-layers I-II were microdissected with laser capture followed by RT-qPCR. SCDH KCC2 protein expression was measured morphometrically after KCC2 immunolabeling using SCDH laminae I-II as the region-of-interest (FIG. 5B).

[2] = test system: delta-cat binding to KCC2 promoter; assay: ChIP with anti-delta-cat antibody at KCC2 promoter; type: cell-based, rat; details: KP-treatment vs vehicle
Protocol: ChIP assay was carried out as described previously (Yeo et al., 2009, J Neurosci 29:14652-14662; Yeo et al., 2013, Proc Natl Acad Sci USA 110:4315-4320). Primary cortical neurons (0.7×10^6) were used for each ChIP experiment. Cells were crosslinked with 1% formaldehyde for 30 min, washed twice with cold PBS, resuspended in lysis buffer [1% SDS, 10 mm EDTA, and 50 mm Tris-HCl, pH 8.0, with protease inhibitor cocktail (Roche)], and sonicated for 15 s pulses. The lysates were clarified by centrifugation at 10,000 rpm for 10 min at 4° C. in a microcentrifuge. One-tenth of the total lysate was used as input control of genomic DNA. Supernatants were collected and diluted in buffer (1% Triton X-100, 2 mm EDTA, 150 mm NaCl, 20 mm Tris-HCl, pH 8.0, and protease inhibitor cocktail) followed by immunoclearing with 1 mg of salmon sperm DNA, 10 ml of rabbit IgG, and 20 ml of protein A/G-Sepharose (Santa Cruz Biotechnology) for 1 h at 4° C. Immunoprecipitation was performed overnight at 4° C. with 2 mg of each specific antibody. Precipitates were washed sequentially for 10 min each in TSE1 buffer (0.1% SDS, 1% Triton X-100, 2 mm EDTA, 150 mm NaCl, and 20 mm Tris-HCl, pH 8.0), TSE2 (TSE1 with 500 mm NaCl), and TSE3 (0.25 m LiCl, 1% NP-40, 1% deoxycholate, 1 mm EDTA, and 10 mm Tris-HCl, pH 8.0). Precipitates were then washed twice with 10 mm Tris/0.1 mm EDTA, pH 7.8 and extracted with 1% SDS containing 0.1 m NaHCO3. Eluates were pooled and heated at 65° C. for 4 h to reverse formaldehyde crosslinking. DNA fragments were purified with Qiagen Qiaquick spin kit. For ChIP PCR, 1 l of a 25 l DNA extraction was used.
Consequently, catenins effects on the KCC2 promoter was explored.

[3] = test system: mouse KCC2 promoter constructs; assay: KCC2 promoter luciferase reporter assay in N2a cells; type: cell-based; details: KP 400 nM
Excerpt: A fragment of the mouse KCC2 gene promoter (position −2052 […]) was amplified from genomic DNA prepared from cultured mouse primary glial cells. A 2.5 kb PCR fragment was cloned into the pGL4.17-Basic Vector (Promega) to generate the KCC2 promoter reporter construct. TCF and Kaiso binding sites were identified in this fragment. Using wild-type construct pGL4.17-KCC2 as a template, site-directed mutagenesis using Phusion DNA Polymerase enzyme (Thermo Fisher F549L) in conjunction with complementary primers bearing the specific mutation were used to mutate the Kaiso and TCF DNA-binding sites. PCR was followed by Dpn1 enzyme digestion to remove parental plasmid DNA. All constructs were verified by sequencing.
N2a cells were grown to 90% confluency in 24-well dishes in 0.4 mL of medium (DMEM, 2% Fetal Bovine Serum, 2 mM glutamine, 1% Non-essential amino acids, and 1% Penicillin/Streptomycin). Cells were transiently transfected using TurboFect reagent (Thermo Fisher R0531), with 500 ng of the pGL4.17-constructs plus 20 ng of the control Renilla plasmid (Promega, E2231) to normalize for transfection efficiency. Twenty-four hours after transfection, luminescence was measured using the Dual-Luciferase® Reporter Assay System (Promega) in a microplate luminometer (Veritas, Turner Biosystems). Mutant promoters were compared to WT, and the response of the respective promoter to KP (400 nM) was measured. Three independent transfection experiments were carried out and LUC assays were done in triplicates for each transfection. RLU is expressed as firefly luciferase activity relative to Renilla LUC activity.
Promoter expression constructs were built with rationally-targeted deletions to interrogate the effects of the Kaiso- and TCF-binding sites on activity of the KCC2 promoter and to determine if this activity was regulated by KP. For ease of transfection, key to this method, N2a neural cells were again used. The 5′ and 3′ delta-cat Kaiso binding sites functioned in repressive and enhancing manners, respectively (FIG. 11D).

O=C1Cc2c([nH]c3ccc(Br)cc23)-c2ccccc2N1 [kenpaullone, 9-bromo-7,12-dihydro-indolo [3,2-d] [1]benzazepin-6(5H)-one]
sensitized withdrawal thresholds to mechanical cues ([1]; KP 10 and 30 mg/kg, no significant difference between doses): significantly less sensitive | thermal pain threshold ([1]; both low and high dose KP): significantly less sensitive only at day 7 | KCC2 mRNA expression in SCDH lamina-I/II (KCC2 mRNA): rescues significantly attenuated KCC2 mRNA expression | binding of delta-cat to Kaiso1 site [2]: significantly reduced binding | binding of delta-cat to Kaiso2 site [2]: significantly increases binding | binding of delta-cat to TCF site [2]: non-significant increase | KCC2 promoter LUC activity ([3]; Kaiso1 deletion (ΔK1) construct): significantly enhanced further | KCC2 promoter LUC activity ([3]; TCF deletion constructs of FIG. 11C): did not increase | KCC2 promoter LUC activity ([3]; deletion of both Kaiso sites): non-responsiveness | KCC2 promoter LUC activity ([3]; triple-deletion of both Kaiso sites and TCF site): completely non-responsive
